Laboratory results from patent US20030129193A1 (priority 2001, published 2003).

What was measured:
3LL mouse lung carcinoma = test: In vivo tumor thrombosis, 3LL; parameters: species or system C57BL/6 mice; conditions: large (>800 mm^3) 3LL tumors
Source text: Tumor test systems were of four types: i) 3LL mouse lung carcinoma growing subcutaneously in C57BL/6 mice; ii) C1300 mouse neuroblastoma growing subcutaneously in BALB/c nu/nu mice; iii) HT29 human colorectal carcinoma growing subcutaneously in BALB/c nu/nu mice; and iv) C1300 Muγ mouse neuroblastoma growing subcutaneously in BALB/c nu/nu mice. The C1300 Muγ tumor is an interferon-γ secreting transfectant derived from the C 1300 tumor (Watanabe et al., 1989).
To establish tumors, 10^6 to 1.5×10^7 tumor cells were injected subcutaneously into the right anterior flank of the mice. When tumors had grown to various sizes, mice were randomly assigned to different study groups. […] Fab′, or bispecific antibody. Other mice received equivalent quantities IgG, Fab′ or bispecific antibody alone. The injections were performed slowly into one of the tail veins over approximately 45 seconds, usually followed by 200 μl of saline.
Twenty-four hours after being injected with tTF or immunoglobulin-tTF conjugates, the mice were anesthetized with metophane and were exsanguinated by perfusion with heparinized saline. Tumors and normal tissues were excised and immediately fixed in 3% (v/v) formalin. Paraffin sections were cut and stained with hematoxylin and eosin. Blood vessels having open lumens containing erythrocytes and blood vessels containing thrombi were counted. […]

[1] = system: citrated mouse or human plasma; test: In vitro coagulation assay on A20 cells; type: cell-based
factor X = test: Cell free two-stage coagulation assay; type: biochemical; conditions: Factor Xa generation, absorption at 405 nm
Protocol: In vitro coagulation activity was tested in a cell free two-stage coagulation assay. Negatively charged phospholipids at a final concentration of 50 μM (phosphatidylserine and phosphatidylcholine from Sigma, Taufkirchen, Germany) in calcium buffer (50 mM Tris pH=8.1, 150 mM NaCl, 2 mg/ml BSA, 5 mM Ca^++) were mixed with Factor VIIa (Sigma, Taufkirchen, Germany) at 10 nM and with samples or controls and incubated for five min at 37° C. Factor X was added to a final concentration of 30 nM and samples were incubated for 5 min at room temperature. Finally, the chromogenic substrate S2765 (Haemochrom, Essen, Germany) was added in a 100 mM EDTA solution. Factor Xa generation as a measure of Tissue Factor activity was determined by the increase in the absorption at 405 nm.
Negatively charged phospholipids at a final concentration of 50 μM (phosphatidylserine and phosphatidylcholine from Sigma, St. Louis, Mo.) in calcium buffer (50 mM Tris pH=8.1, 150 mM NaCl, 2 mg/ml BSA, 5 mM Ca^++) were mixed with Factor VIIa (Sigma. St. Louis, Mo.) at 10 nM and with samples or controls and incubated for five minutes at 37° C. Factor X (Sigma, St. Louis, Mo.) was added to a final concentration of 30 nM and samples were incubated for 5 minutes at room temperature. […] Factor Xa generation as a measure of tissue factor activity was determined by the increase in the absorption at 405 nm.

bEnd 3 cells = test: Cell bound coagulation assay, stimulated endothelial cells; type: cell-based, mouse; conditions: for Factor Xa generation: mix with 0.5 μg/ml factor VIIa; for Factor Xa generation due to Factor VIIa production: mix with 2 μg/ml factor VII and 0.01 μg/ml factor VIIa, factor VII background subtracted
Protocol: To assay the coagulation induction of stimulated versus unstimulated endothelial cells, bEnd 3 cells were seeded in 48 well tissue culture plates at a density of 1×10^4 cells per well and allowed to adhere overnight. Cells were stimulated with endotoxin (0.5 μg/ml and 10 μg/ml) or TNFα (500 U/ml) for 4 h at 37° C. […] After incubation for 45 min at room temperature, cells were washed and incubated with various coagulation factor mixes as follows: (1) 0.5 μg/ml factor VIIa in a mix containing 2.8 μg/ml factor IX, 3.4 μg/ml factor X, 50 μM phospholipids, in calcium buffer (as specified above); (2) 0.01 μg/ml factor VIIa in a mix as in (1); (3) 2 μg/ml factor VII (Calbiochem-Novabiochem, San Diego, Calif.) in a mix as in (1); (4) 2 […] factor VII, 0.01 μg/ml factor VIIa in a mix as in (1). The supernatant of wells was transferred into a 96 well ELISA plate. Substrate S2765 was added and Factor Xa generation measured alongside different concentrations of Factor Xa standard (7 nkatS2222; 0.7 nkatS2222; 0.07 nkatS2222). OD405nm values were calculated as nkatS2222 Factor Xa from the Factor Xa standard curve.
bEnd 3 cells were seeded in 48 well tissue culture plates at a density of 1×10^4 cells per well and allowed to adhere overnight. Cells were stimulated with endotoxin (0.5 μg/ml and 10 μg/ml) or TNFα (500 U/ml) for 4 h at 37° C. […] After incubation for 45 min at room temperature, cells were washed and incubated with coagulation factor mix as follows: 0.5 μg/ml factor VIIa in a mix containing 2.8 μg/ml factor IX, 3.4 μg/ml factor X, 50 μM phospholipids, in calcium buffer; supernatant of wells was transferred into a 96 well ELISA plate. Substrate S2765 was added and Factor Xa generation measured alongside different concentrations of Factor Xa standard (7 nkatS2222; 0,7 nkatS2222; 0,07 nkatS2222). OD405nm values were calculated as nkatS2222 Factor Xa from the Factor Xa standard curve.

immobilized tTF = target: T1, immobilized tTF (Homo sapiens, UniProt P13726); test: Real time binding study (surface plasmon resonance); conditions: alone or preincubated with endotoxin or factor VIIa
T1 construct: the extracellular domain of the mature Tissue Factor protein (amino acid 1-219 of the mature protein; inferred from Ni-NTA purification); made in house; host or cells: E. coli (periplasmic secretion, vector pswc7)
T1 sequence (P13726 33-251): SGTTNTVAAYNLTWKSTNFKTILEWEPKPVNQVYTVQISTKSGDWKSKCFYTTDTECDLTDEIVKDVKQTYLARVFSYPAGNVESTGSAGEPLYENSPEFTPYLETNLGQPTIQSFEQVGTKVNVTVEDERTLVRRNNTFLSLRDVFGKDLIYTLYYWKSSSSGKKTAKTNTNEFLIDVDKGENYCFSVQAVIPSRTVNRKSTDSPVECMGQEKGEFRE

“tTF: extracellular domain of the mature Tissue Factor protein (amino acid 1-219)” was tested, and the “tumor vessels thrombosed, average” value (3LL mouse lung carcinoma) was 62%, the plasma coagulation time ([1]; 10^−10 M tTF219, absence of Factor VIIa) was 60 s and the plasma coagulation time ([1]; 10^−10 M tTF219, presence of 13.5 nM Factor VIIa) was 20 s. The coagulation time ([1]; 20,000 molecules per cell) was 140 s, the coagulation time ([1]; 300,000 molecules of tTF per cell) was 40 s and the “concentration at which plasma coagulated in 50 seconds” value ([1]; localized on A20 cells via B21-2/10H10) was 3 nM. The “increase in coagulation-inducing potency” value ([1]; presence of 0.1 nM Factor VIIa) was 2-5 fold, the “time until fibrin strands visible after addition of plasma” value ([1]; tTF bound to A20 cells by B21-2/10H10, mouse plasma) was 36 s and the “coagulation activities before and after endotoxin removal” value (factor X) was “the same”. The “Factor Xa generation” value (bEnd 3 cells; stimulation with 0.5 μg/ml LPS) was 2.00 nkats2222, the “Factor Xa generation due to Factor VIIa production” value (“Factor Xa generation due” for short) (bEnd 3 cells; stimulation with 0.5 μg/ml LPS) was 3.00 nkats2222 and the “Factor Xa generation” value (bEnd 3 cells; stimulation with 10 μg/ml LPS) was 2.91 nkats2222. The “Factor Xa generation” value (bEnd 3 cells; stimulation with Medium) was 0.40 nkats2222, the “Factor Xa generation due” value (bEnd 3 cells; stimulation with Medium) was 0.70 nkats2222 and the “Factor Xa generation” value (bEnd 3 cells; stimulation with TNFα (500 U/ml)) was 0.67 nkats2222. For the same substance, the “Factor Xa generation due” value (bEnd 3 cells; stimulation with TNFα) was 1.91 nkats2222 and the “binding to immobilized tTF” value (immobilized tTF) was “did not bind to or homodimerize with immobilized tTF”.
